Source: PubChem BioAssay AID256 (DTP/NCI, 2004)
Values joined by “and” are separate entries in the source; they are usually repeats but may differ in a detail not shown here. Equal values may be shown once. Inconclusive results and toxic doses are left out. Rule for the calls: active = survival T/C of 150% or more; inactive = T/C below 125% in these data.

Test system: CD2F1 mice, L1210 leukemia ip, survival T/C
Experiment: NCI In Vivo Anticancer Drug Screen. Data for tumor model L1210 Leukemia (intraperitoneal) in CD2F1 (CDF1) mice
Conditions: higher = longer survival
How it was run: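 Mice carrying a transplanted tumor received test compound or vehicle alone. The value is the measurement in the treated group divided by that in the vehicle-treated control group.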

[1] = endpoint: mean survival time, dose: 100.0 mg/kg/injection, schedule: Q04DX002 (ip), vehicle: saline with Tween-80
[2] = endpoint: mean survival time, dose: 100.0 mg/kg/injection, schedule: Q04DX003 (ip), vehicle: saline with Tween-80
[3] = endpoint: mean survival time, dose: 200.0 mg/kg/injection, schedule: Q04DX003 (ip), vehicle: saline with Tween-80
[4] = endpoint: mean survival time, dose: 400.0 mg/kg/injection, schedule: Q04DX003 (ip), vehicle: saline with Tween-80
[5] = endpoint: mean survival time, dose: 100.0 mg/kg/injection, schedule: Q01DX009 (ip), vehicle: saline with Tween-80
[6] = endpoint: mean survival time, dose: 200.0 mg/kg/injection, schedule: Q01DX009 (ip), vehicle: saline with Tween-80
[7] = endpoint: mean survival time, dose: 400.0 mg/kg/injection, schedule: Q01DX009 (ip), vehicle: saline with Tween-80
[8] = endpoint: mean survival time, dose: 100.0 mg/kg/injection, schedule: Q01DX001 (ip), vehicle: saline with Tween-80
[9] = endpoint: mean survival time, dose: 200.0 mg/kg/injection, schedule: Q01DX001 (ip), vehicle: saline with Tween-80

Measured: T/C

O=S(=O)(SC(S(=O)(=O)c1ccccc1)S(=O)(=O)c1ccccc1)c1ccccc1
inactive: endpoint: mean survival time, dose: 12.5 mg/kg/injection, schedule: Q01DX009 (ip), vehicle: Klucel (hydroxypropylcellulose) (HPC) 94 % of control and 105 % of control | endpoint: mean survival time, dose: 25.0 mg/kg/injection, schedule: Q01DX009 (ip), vehicle: Klucel (hydroxypropylcellulose) (HPC) 97 % of control and 110 % of control | endpoint: mean survival time, dose: 50.0 mg/kg/injection, schedule: Q01DX009 (ip), vehicle: Klucel (hydroxypropylcellulose) (HPC) 98 % of control and 102 % of control | endpoint: mean survival time, dose: 100.0 mg/kg/injection, schedule: Q01DX009 (ip), vehicle: Klucel (hydroxypropylcellulose) (HPC) 96 % of control | endpoint: mean survival time, dose: 200.0 mg/kg/injection, schedule: Q01DX009 (ip), vehicle: Klucel (hydroxypropylcellulose) (HPC) 92 % of control and 104 % of control | endpoint: mean survival time, dose: 400.0 mg/kg/injection, schedule: Q01DX009 (ip), vehicle: Klucel (hydroxypropylcellulose) (HPC) 113 % of control and 94 % of control | endpoint: median survival time, dose: 100.0 mg/kg/injection, schedule: Q01DX009 (ip), vehicle: Klucel (hydroxypropylcellulose) (HPC) 103 % of control | endpoint: median survival time, dose: 200.0 mg/kg/injection, schedule: Q01DX009 (ip), vehicle: Klucel (hydroxypropylcellulose) (HPC) 102 % of control | endpoint: median survival time, dose: 400.0 mg/kg/injection, schedule: Q01DX009 (ip), vehicle: Klucel (hydroxypropylcellulose) (HPC) 102 % of control | endpoint: median survival time, dose: 800.0 mg/kg/injection, schedule: Q01DX009 (ip), vehicle: Klucel (hydroxypropylcellulose) (HPC) 92 % of control

O/N=C(\c1ccccc1)C1C(/C(=N/O)c2ccccc2)C1c1ccccc1 (stereo not drawn)
inactive: endpoint: mean survival time, dose: 50.0 mg/kg/injection, schedule: Q04DX002 (ip), vehicle: saline with Tween-80 90 % of control | [1] 87 % of control

CCc1c(O)c2c(c(O)c1C(C)=O)C(=O)c1c(cc(O)c(C(=O)O)c1C(=O)O)C2=O
inactive: endpoint: mean survival time, dose: 50.0 mg/kg/injection, schedule: Q01DX009 (ip), vehicle: saline 108 % of control | endpoint: mean survival time, dose: 100.0 mg/kg/injection, schedule: Q01DX009 (ip), vehicle: saline 116 % of control

O=C(c1ccccc1)c1c[nH]c2ccccc12
inactive: [2] 100 % of control | [3] 86 % of control | [4] 90 % of control

CN/N=C/c1ccc(O)c(OC)c1
inactive: [5] 91 % of control | [6] 87 % of control

CNC(=O)Oc1coc(CCl)cc1=O
inactive: endpoint: mean survival time, dose: 25.0 mg/kg/injection, schedule: Q01DX009 (ip), vehicle: saline with Tween-80 98 % of control | endpoint: mean survival time, dose: 50.0 mg/kg/injection, schedule: Q01DX009 (ip), vehicle: saline with Tween-80 107 % of control | endpoint: mean survival time, dose: 50.0 mg/kg/injection, schedule: Q04DX003 (ip), vehicle: saline with Tween-80 97 % of control | [5] 101 % of control | [2] 101 % of control

CCC(COC(=O)c1ccc([N+](=O)[O-])cc1)NC1CCCCC1 (stereo not drawn)
inactive: endpoint: mean survival time, dose: 75.0 mg/kg/injection, schedule: Q01DX001 (ip), vehicle: saline 102 % of control | endpoint: mean survival time, dose: 150.0 mg/kg/injection, schedule: Q01DX001 (ip), vehicle: saline 103 % of control | endpoint: mean survival time, dose: 300.0 mg/kg/injection, schedule: Q01DX001 (ip), vehicle: saline 101 % of control

c1ccc2c(-c3nn[nH]n3)nccc2c1
inactive: endpoint: mean survival time, dose: 100.0 mg/kg/injection, schedule: Q01DX001 (ip), vehicle: saline 106 % of control | endpoint: mean survival time, dose: 200.0 mg/kg/injection, schedule: Q01DX001 (ip), vehicle: saline 113 % of control

CCCCCCCCCC(=O)CCCCC
inactive: endpoint: mean survival time, dose: 100.0 mg/kg/injection, schedule: Q04DX003 (ip), vehicle: other 89 % of control | endpoint: mean survival time, dose: 200.0 mg/kg/injection, schedule: Q04DX003 (ip), vehicle: other 94 % of control | endpoint: mean survival time, dose: 400.0 mg/kg/injection, schedule: Q04DX003 (ip), vehicle: other 103 % of control

O=C(CCl)NC(=O)CCl
inactive: endpoint: mean survival time, dose: 25.0 mg/kg/injection, schedule: Q01DX009 (ip), vehicle: saline sonified 90 % of control | endpoint: mean survival time, dose: 50.0 mg/kg/injection, schedule: Q01DX009 (ip), vehicle: saline sonified 104 % of control | endpoint: mean survival time, dose: 100.0 mg/kg/injection, schedule: Q01DX009 (ip), vehicle: saline sonified 90 % of control

O=C(Nc1ccc(Cl)c(C(F)(F)F)c1)Nc1cc(Cl)ccc1Sc1cc(Cl)c(Cl)cc1S(=O)(=O)O
inactive: endpoint: mean survival time, dose: 100.0 mg/kg/injection, schedule: Q01DX001 (ip), vehicle: saline sonified 102 % of control | [5] 100 % of control | endpoint: mean survival time, dose: 200.0 mg/kg/injection, schedule: Q01DX001 (ip), vehicle: saline sonified 93 % of control | [6] 105 % of control | endpoint: mean survival time, dose: 400.0 mg/kg/injection, schedule: Q01DX001 (ip), vehicle: saline sonified 93 % of control | [7] 102 % of control

[Cl][Pt+2]([Cl])([Cl])[Cl].[NH-]Cc1ccccc1C[NH-]
inactive: endpoint: mean survival time, dose: 5.0 mg/kg/injection, schedule: Q04DX003 (ip), vehicle: saline with Tween-80 110 % of control | endpoint: mean survival time, dose: 10.0 mg/kg/injection, schedule: Q04DX003 (ip), vehicle: saline with Tween-80 118 % of control | endpoint: mean survival time, dose: 20.0 mg/kg/injection, schedule: Q04DX003 (ip), vehicle: saline with Tween-80 120 % of control | endpoint: mean survival time, dose: 40.0 mg/kg/injection, schedule: Q04DX003 (ip), vehicle: saline with Tween-80 86 % of control

NC(=O)NC1CC1(c1ccccc1)c1ccccc1 (stereo not drawn)
inactive: endpoint: mean survival time, dose: 177.0 mg/kg/injection, schedule: Q01DX001 (ip), vehicle: other 94 % of control | endpoint: mean survival time, dose: 267.0 mg/kg/injection, schedule: Q01DX001 (ip), vehicle: other 96 % of control | endpoint: mean survival time, dose: 400.0 mg/kg/injection, schedule: Q01DX001 (ip), vehicle: other 100 % of control

O=c1nc(NCCc2c[nH]c3ccccc23)ccn1C1OC(CO)C(O)C1O (stereo not drawn)
inactive: endpoint: median survival time, dose: 12.5 mg/kg/injection, schedule: Q01DX005 (ip), vehicle: distilled water + Tween-80 101 % of control | endpoint: median survival time, dose: 25.0 mg/kg/injection, schedule: Q01DX005 (ip), vehicle: distilled water + Tween-80 100 % of control | endpoint: median survival time, dose: 50.0 mg/kg/injection, schedule: Q01DX005 (ip), vehicle: distilled water + Tween-80 98 % of control | endpoint: median survival time, dose: 100.0 mg/kg/injection, schedule: Q01DX005 (ip), vehicle: distilled water + Tween-80 98 % of control | endpoint: median survival time, dose: 200.0 mg/kg/injection, schedule: Q01DX005 (ip), vehicle: distilled water + Tween-80 98 % of control

c1cc2c(c(N3CCNCC3)c1)CCCC2
inactive: [8] 110 % of control | [9] 95 % of control

Cc1c(Cl)cccc1NC(=O)COc1ccc(Cl)cc1Cl
inactive: [2] 94 % of control | [3] 98 % of control | [4] 96 % of control

Cc1ccc([N+](=O)[O-])cc1NC(=O)NNC(=O)CNC(=O)c1ccc(Cl)cc1
inactive: [5] 88 % of control | [6] 94 % of control | [7] 107 % of control

CC1(C)C2CCC1(CS(=O)(=O)O)C(=O)C2.[Ag] (stereo not drawn)
inactive: endpoint: mean survival time, dose: 100.0 mg/kg/injection, schedule: Q04DX003 (ip), vehicle: acetone 96 % of control

CC(=O)CN(C(C)=O)c1ccccc1
inactive: [1] 105 % of control | endpoint: mean survival time, dose: 200.0 mg/kg/injection, schedule: Q04DX002 (ip), vehicle: saline with Tween-80 97 % of control | endpoint: mean survival time, dose: 400.0 mg/kg/injection, schedule: Q04DX002 (ip), vehicle: saline with Tween-80 109 % of control

O=C1/C(=C\c2ccccc2)C2CCC(C2)/C1=C\c1ccccc1
inactive: [8] 91 % of control | [9] 88 % of control | endpoint: mean survival time, dose: 400.0 mg/kg/injection, schedule: Q01DX001 (ip), vehicle: saline with Tween-80 97 % of control
